One assay deals with hKv1.3 (Homo sapiens, UniProt P22001). In words: hKv1.3 % inhibition. It is filed as cell-based. Conditions: for inhibition at 1 µM: read-out: hKv1.3 % inh. 1 uM.
A further assay concerns the target hKv1.5 (Homo sapiens, UniProt P22460). Nature of the assay: hKv1.5 % inhibition. The format is cell-based. Conditions: for inhibition at 0.3 µM: read-out: hKv1.5 % inh. 300 nM.

From patent US8426442B2, “Compounds” (Xention Ltd, priority 2009, dated 2013) come the findings set out here.

hKv1.3, sequence (P22001 whole entry): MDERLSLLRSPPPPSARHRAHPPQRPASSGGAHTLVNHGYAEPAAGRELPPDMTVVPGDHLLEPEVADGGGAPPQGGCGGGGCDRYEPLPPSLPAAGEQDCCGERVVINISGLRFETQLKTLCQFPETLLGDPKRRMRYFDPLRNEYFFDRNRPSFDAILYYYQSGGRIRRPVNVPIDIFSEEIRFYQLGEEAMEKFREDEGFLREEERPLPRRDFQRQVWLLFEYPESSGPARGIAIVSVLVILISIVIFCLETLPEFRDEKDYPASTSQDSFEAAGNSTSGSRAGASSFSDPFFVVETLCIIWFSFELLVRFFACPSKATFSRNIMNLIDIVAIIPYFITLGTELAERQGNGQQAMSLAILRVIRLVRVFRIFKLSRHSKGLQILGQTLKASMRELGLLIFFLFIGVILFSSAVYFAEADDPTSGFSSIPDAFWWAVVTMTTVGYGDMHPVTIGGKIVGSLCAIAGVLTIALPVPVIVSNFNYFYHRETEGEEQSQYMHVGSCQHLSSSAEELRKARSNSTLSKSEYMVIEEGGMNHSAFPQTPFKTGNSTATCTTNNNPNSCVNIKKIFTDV
hKv1.5, sequence (P22460 whole entry): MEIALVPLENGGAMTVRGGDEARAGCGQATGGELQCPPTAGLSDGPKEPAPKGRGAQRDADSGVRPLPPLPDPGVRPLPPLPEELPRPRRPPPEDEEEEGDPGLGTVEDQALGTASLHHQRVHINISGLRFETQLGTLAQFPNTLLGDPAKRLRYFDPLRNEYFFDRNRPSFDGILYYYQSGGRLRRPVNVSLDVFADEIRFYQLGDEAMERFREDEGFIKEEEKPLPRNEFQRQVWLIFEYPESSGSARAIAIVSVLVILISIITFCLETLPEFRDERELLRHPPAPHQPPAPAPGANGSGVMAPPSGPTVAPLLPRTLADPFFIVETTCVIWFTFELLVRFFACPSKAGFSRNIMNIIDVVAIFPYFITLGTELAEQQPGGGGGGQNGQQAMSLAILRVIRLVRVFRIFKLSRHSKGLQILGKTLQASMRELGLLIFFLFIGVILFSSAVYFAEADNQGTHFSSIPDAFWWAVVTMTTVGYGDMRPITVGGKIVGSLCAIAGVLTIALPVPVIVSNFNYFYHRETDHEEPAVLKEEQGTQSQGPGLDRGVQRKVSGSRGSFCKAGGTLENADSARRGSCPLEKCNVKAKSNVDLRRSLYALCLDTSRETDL

Take “1-Methyl-1H-pyrazole-3-sulfonic acid (4-chloro-benzyl)-[1-(3-methoxy-propionyl)-2,3-dihydro-1H-indol-6-yl]-amide [Example 2]”: the “hKv1.3 % inh. 1 uM” value at hKv1.3 was determined as 99.1%.

“1-Methyl-1H-pyrazole-3-sulfonic acid benzyl-[2-(2-cyano-acetyl)-1,2,3,4-tetrahydro-isoquinolin-6-yl]-amide [Example 9]”: on hKv1.3, the “hKv1.3 % inh. 1 uM” value is reported as 71.6%. In addition, the “hKv1.5 % inh. 300 nM” value at hKv1.5 was 27.6%.

In the case of “1-Methyl-1H-pyrazole-3-sulfonic acid benzyl-[2-(2-methoxy-acetyl)-1,2,3,4-tetrahydro-isoquinolin-6-yl]-amide [Example 18]”, at hKv1.3, the “hKv1.3 % inh. 1 uM” value is recorded as 51.1%. Moreover, the “hKv1.5 % inh. 300 nM” value on hKv1.5 was found to be 34.6%.

Regarding “1-Methyl-1H-pyrazole-3-sulfonic acid benzyl-[2-(3-methoxy-propionyl)-1,2,3,4-tetrahydro-isoquinolin-6-yl]-amide [Example 12]”, on hKv1.3, the “hKv1.3 % inh. 1 uM” value worked out at 64.3%. In addition, the “hKv1.5 % inh. 300 nM” value on hKv1.5 is 41.7%.

“1-Methyl-1H-pyrazole-3-sulfonic acid benzyl-[2-(pyridine-2-carbonyl)-1,2,3,4-tetrahydro-isoquinolin-6-yl]-amide [Example 17]”: the “hKv1.3 % inh. 1 uM” value at hKv1.3 is reported as 54.8%. Also, the “hKv1.5 % inh. 300 nM” value on hKv1.5 was found to be 36.7%.

Turning to `COCC(=O)N1CCc2ccc(N(Cc3ccc(Cl)cc3)S(=O)(=O)c3ccn(C)n3)cc21` [Example 1, 1-Methyl-1H-pyrazole-3-sulfonic acid (4-chloro-benzyl)-[1-(2-methoxy-acetyl)-2,3-dihydro-1H-indol-6-yl]-amide], at hKv1.3, the inhibition at 1 µM was determined as 100%. Moreover, the inhibition at 0.3 µM at hKv1.5 worked out at 92.1%.

`CC(=O)N1CCc2ccc(N(Cc3ccc(Cl)cc3)S(=O)(=O)c3ccn(C)n3)cc21` [Example 3, 1-Methyl-1H-pyrazole-3-sulfonic acid (1-acetyl-2,3-dihydro-1H-indol-6-yl)-(4-chloro-benzyl)-amide]: on hKv1.3, the inhibition at 1 µM is 98%. Further, on hKv1.5, the inhibition at 0.3 µM worked out at 89.5%.

As for `CC(=O)N1CCc2cc(N(Cc3ccc(Cl)cc3)S(=O)(=O)c3ccn(C)n3)ccc21` [Example 4, 1-Methyl-1H-pyrazole-3-sulfonic acid (1-acetyl-2,3-dihydro-1H-indol-5-yl)-(4-chloro-benzyl)-amide], the inhibition at 1 µM at hKv1.3 is 91.3%. In addition, the inhibition at 0.3 µM at hKv1.5 amounted to 86.1%.

In the case of `COCCC(=O)N1CCc2cc(N(Cc3ccc(Cl)cc3)S(=O)(=O)c3ccn(C)n3)ccc21` [Example 5, 1-Methyl-1H-pyrazole-3-sulfonic acid (4-chloro-benzyl)-[1-(3-methoxy-propionyl)-2,3-dihydro-1H-indol-5-yl]-amide], the inhibition at 1 µM at hKv1.3 turned out to be 90.7%. Further, the inhibition at 0.3 µM at hKv1.5 came to 65.2%.

For `Cn1cnc(S(=O)(=O)N(Cc2ccc(Cl)cc2)c2ccc3c(c2)NCC3)c1` [Example 6, 1-Methyl-1H-imidazole-4-sulfonic acid (4-chloro-benzyl)-(2,3-dihydro-1H-indol-6-yl)-amide], the inhibition at 1 µM at hKv1.3 worked out at 85.4%. For the same molecule, the inhibition at 0.3 µM at hKv1.5 was 37.1%.

Turning to `Cn1ccc(S(=O)(=O)N(Cc2ccc(Cl)cc2)c2ccc3c(c2)CCN3C(=O)CC#N)n1` [Example 7, 1-Methyl-1H-pyrazole-3-sulfonic acid (4-chloro-benzyl)-[1-(2-cyano-acetyl)-2,3-dihydro-1H-indol-5-yl]-amide], at hKv1.3, the inhibition at 1 µM amounted to 77.2%. Also, on hKv1.5, the inhibition at 0.3 µM came out at 48.3%.

For the molecule `CC(=O)N1CCc2cc(N(Cc3ccc(Cl)cc3)S(=O)(=O)c3cn(C)cn3)ccc2C1` [Example 8, 1-Methyl-1H-imidazole-4-sulfonic acid(2-acetyl-1,2,3,4-tetrahydro-isoquinolin-6-yl)-(4-chlorobenzyl)-amide], the “hKv1.3 % inh. 1 uM” value on hKv1.3 is listed as 73.3%. For the same molecule, the “hKv1.5 % inh. 300 nM” value at hKv1.5 came to 25.2%.

`CC(=O)N1CCc2cc(N(Cc3ccccc3)S(=O)(=O)c3ccn(C)n3)ccc2C1` [Example 10, 1-Methyl-1H-pyrazole-3-sulfonic acid (2-acetyl-1,2,3,4-tetrahydro-isoquinolin-6-yl)-benzyl-amide]: at hKv1.3, the inhibition at 1 µM was 67.2%. Also, the inhibition at 0.3 µM on hKv1.5 was 37.5%.

Consider `COCCC(=O)N1CCc2ccc(N(Cc3ccc(Cl)cc3)S(=O)(=O)c3cn(C)cn3)cc21` [Example 11, 1-Methyl-1H-imidazole-4-sulfonic acid (4-chloro-benzyl)-[1-(3-methoxy-propionyl)-2,3-dihydro-1H-indol-6-yl]-amide], for which the inhibition at 1 µM on hKv1.3 was found to be 65.6%. The inhibition at 0.3 µM at hKv1.5 stood at 20.9%.

Turning to `COCC(=O)N1CCc2cc(N(Cc3ccc(Cl)cc3)S(=O)(=O)c3ccn(C)n3)ccc21` [Example 13, 1-Methyl-1H-pyrazole-3-sulfonic acid (4-chloro-benzyl)-[1-(2-methoxy-acetyl)-2,3-dihydro-1H-indol-5-yl]-amide], at hKv1.3, the inhibition at 1 µM was found to be 64.2%. Also, at hKv1.5, the inhibition at 0.3 µM worked out at 66.6%.

In the case of `COCC(=O)N1CCc2cc(N(Cc3ccc(Cl)cc3)S(=O)(=O)c3cn(C)cn3)ccc2C1` [Example 14, 1-Methyl-1H-imidazole-4-sulfonic acid (4-chloro-benzyl)-[2-(2-methoxy-acetyl)-1,2,3,4-tetrahydro-isoquinolin-6-yl]-amide], on hKv1.3, the inhibition at 1 µM was 62.7%. Besides, at hKv1.5, the inhibition at 0.3 µM came to 32.1%.

As to `Cn1cnc(S(=O)(=O)N(Cc2ccc(Cl)cc2)c2ccc3c(c2)CCN3)c1` [Example 15, 1-Methyl-1H-imidazole-4-sulfonic acid (4-chloro-benzyl)-(2,3-dihydro-1H-indol-5-yl)-amide], the inhibition at 1 µM at hKv1.3 is 61.1%. Moreover, the inhibition at 0.3 µM at hKv1.5 was 20.5%.

Consider `COCCC(=O)N1CCc2cc(N(Cc3ccc(Cl)cc3)S(=O)(=O)c3cn(C)cn3)ccc2C1` [Example 16, 1-Methyl-1H-imidazole-4-sulfonic acid (4-chloro-benzyl)-[2-(3-methoxy-propionyl)-1,2,3,4-tetrahydro-isoquinolin-6-yl]-amide], for which the inhibition at 1 µM on hKv1.3 is 57.5%. In addition, the inhibition at 0.3 µM at hKv1.5 worked out at 32.2%.

Take `Cn1cnc(S(=O)(=O)N(Cc2ccc(Cl)cc2)c2ccc3c(c2)CCN(C(=O)CO)C3)c1` [Example 19, 1-Methyl-1H-imidazole-4-sulfonic acid (4-chloro-benzyl)-[2-(2-hydroxy-acetyl)-1,2,3,4-tetrahydro-isoquinolin-6-yl]-amide]: on hKv1.3, the inhibition at 1 µM amounted to 49.5%. The inhibition at 0.3 µM at hKv1.5 came to 16.2%.

As for `Cn1cnc(S(=O)(=O)N(Cc2ccc(Cl)cc2)c2ccc3c(c2)CCN(C(=O)CC#N)C3)c1` [Example 20, 1-Methyl-1H-imidazole-4-sulfonic acid (4-chloro-benzyl)-[2-(2-cyano-acetyl)-1,2,3,4-tetrahydro-isoquinolin-6-yl]-amide], on hKv1.3, the inhibition at 1 µM is 48.5%. Besides, the inhibition at 0.3 µM on hKv1.5 stood at 13.4%.
